pIC50: −log10 of the molar value.
These compounds were tested against EBI2 (Homo sapiens, UniProt P32249) (assay: Cell-based luminescent assay of EBI2 modulation (7a,25-OHC stimulated)). Conditions: 7a,25-OHC final assay concentration 80 nM, 60 minute incubation.
Sequence of EBI2 (P32249 whole entry): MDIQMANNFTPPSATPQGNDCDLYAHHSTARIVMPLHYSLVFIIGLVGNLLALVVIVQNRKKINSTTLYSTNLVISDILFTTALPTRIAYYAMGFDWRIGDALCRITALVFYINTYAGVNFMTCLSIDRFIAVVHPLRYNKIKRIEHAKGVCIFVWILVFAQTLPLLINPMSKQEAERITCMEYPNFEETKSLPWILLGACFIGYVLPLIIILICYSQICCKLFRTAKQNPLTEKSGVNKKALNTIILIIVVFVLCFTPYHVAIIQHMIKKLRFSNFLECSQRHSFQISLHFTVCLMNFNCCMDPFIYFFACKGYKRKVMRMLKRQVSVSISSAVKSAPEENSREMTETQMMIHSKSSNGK
Method: To assess EBI2 modulation, the compounds described herein were assayed in the following cell-based luminescent assay:
1) Plated 600 cells/well in 4 μL of assay media into columns 1-48 of a 1536-well assay plate, using a liquid dispenser.
2) Centrifuged plates at 1000 rpm for 1 minute and covered with lids.
3) Incubated overnight at 37° C., 100% relative humidity, 5% CO2.
1) Centrifuged compound plates containing compounds described herein at 500 rpm for 1 minute.
2) Added compounds into assay plate col 5-48 to final concentration 4-5 uM. Added matching amount of DMSO to positive and negative control wells in columns 1-4.
3) Dispensed 2 uL/well of assay media to columns 1-2 for the positive control wells.
4) Added 2 uL/well of 400 nM 7a,25-OHC (final assay concentration=80 nM) in assay media to columns 3-48 for the negative control and test compound wells.
5) Centrifuged plates at 1000 rpm for 1 minute and re-lid plates.
6) Incubated plates at 37° C., 100% relative humidity, 5% CO2 for 60 minutes.
7) Following 60 minute incubation, delivered 2.5 uL of Detection Reagent solution to each assay plate (Columns 1-48) using a liquid handler.
8) Centrifuged plates at 2000 rpm for 2 minutes and re-lid plates.
9) Incubated plates for 60 minutes at 25 degrees in the dark.
10) Read plates using the Viewlux, Envision or other suitable plate reader using a luminescence detection.
The experimental values were normalized by the difference between values from neutral and stimulator control wells in each plate. Then normalized data was corrected to remove systematic plate patterns due to artifacts such as dispensing tip issues etc.
Work on `O=C(/C=C/c1ccc(Br)cc1)N1CC2(CCN(Cc3ccc(Cl)cc3)CC2)C1` [Compound C26, (2E)-3-(4-bromophenyl)-1-{7-[(4-chlorophenyl)methyl]-2,7-diazaspiro[3.5]non-2-yl}prop-2-en-1-one] yielded a pIC50 of 6.30 to 7.00.
With `O=C(C#Cc1ccc(Cl)cc1)N1CCC2(CC1)CN(C(=O)c1ccc(C(F)(F)F)cc1)C2` [Compound C79, 3-(4-chlorophenyl)-1-(2-{[4-(trifluoromethyl)phenyl]carbonyl}-2,7-diazaspiro[3.5]non-7-yl)prop-2-yn-1-one] the pIC50 was > 7.00.
With `O=C(/C=C/c1ccc(Br)cc1)N1CCC2(CC1)CN(Cc1ccc(F)cc1)C2` [Compound C8, (2E)-3-(4-bromophenyl)-1-{2-[(4-fluorophenyl)methyl]-2,7-diazaspiro[3.5]non-7-yl}prop-2-en-1-one] the pIC50 was > 7.00.
For `O=C(/C=C/c1ccc(Cl)c(Cl)c1)N1CCC2(CC1)CN(C(=O)/C=C/c1ccc(Cl)c(Cl)c1)C2` [Compound C35, (2E)-1-{2-[(2E)-3-(3,4-dichlorophenyl)prop-2-enoyl]-2,7-diazaspiro[3.5]non-7-yl}-3-(3,4-dichlorophenyl)prop-2-en-1-one], the pIC50 was > 7.00.
In the case of `O=C(/C=C/c1ccc(Cl)c(Cl)c1)N1CC2(CCN(C(=O)c3ccc(C(F)(F)F)cc3)CC2)C1` [Compound C30, (2E)-3-(3,4-dichlorophenyl)-1-(7-{[4-(trifluoromethyl)phenyl]carbonyl}-2,7-diazaspiro[3.5]non-2-yl)prop-2-en-1-one], the pIC50 was > 7.00.
`O=C(/C=C/c1ccc(Br)cc1)N1CC2(CCN(C(=O)c3ccc(Cl)cc3)CC2)C1` [Compound C19, (2E)-3-(4-bromophenyl)-1-{7-[(4-chlorophenyl)carbonyl]-2,7-diazaspiro[3.5]non-2-yl}prop-2-en-1-one] was tested, and the pIC50 was > 7.00.
For `O=C(/C=C/c1ccc(Br)cc1)N1CC2(CCN(C(=O)c3ccc(-c4nnn[nH]4)cc3)CC2)C1` [Compound C23, (2E)-3-(4-bromophenyl)-1-{7-[(4-(1H-1,2,3,4-tetraazol-5-yl)phenyl)carbonyl]-2,7-diazaspiro[3.5]non-2-yl}prop-2-en-1-one], the pIC50 was 6.30 to 7.00.
With `O=C(c1ccc(B(O)O)cc1)N1CCC2(CC1)CN(C(=O)c1cc3cc(Cl)ccc3[nH]1)C2` [Compound C37, 4-(2-(5-chloro-1H-indole-2-carbonyl)-2,7-diazaspiro[3.5]nonane-7-carbonyl)phenylboronic acid] the pIC50 was 6.30 to 7.00.
With `N#Cc1ccc(C(=O)N2CCC3(CC2)CN(C(=O)/C=C/c2ccc(Br)cc2)C3)cc1F` [Compound C43, 4-({2-[(2E)-3-(4-bromophenyl)prop-2-enoyl]-2,7-diazaspiro[3.5]non-7-yl}carbonyl)-2-fluorobenzenecarbonitrile] the pIC50 was > 7.00.
For `O=C(C#Cc1ccc(F)cc1)N1CCC2(CC1)CN(C(=O)c1ccc(Cl)cc1)C2` [Compound C87, 1-{2-[(4-chlorophenyl)carbonyl]-2,7-diazaspiro[3.5]non-7-yl}-3-(4-fluorophenyl)prop-2-yn-1-one], the pIC50 was > 7.00.
For `O=C(c1ccc(Cl)cc1)N1CCC2(CC1)CN(C(=O)c1cc3cc(Cl)ccc3[nH]1)C2` [Compound C40, 5-chloroindol-2-yl 7-[(4-chlorophenyl)carbonyl]-2,7-diazaspiro[3.5]non-2-yl ketone], the pIC50 was > 7.00.
Work on `O=C(c1ccc(F)cc1)N1CCC2(CC1)CN(C(=O)c1cc3cc(Br)ccc3[nH]1)C2` [Compound C47, 5-bromoindol-2-yl 7-[(4-fluorophenyl)carbonyl]-2,7-diazaspiro[3.5]non-2-yl ketone] yielded a pIC50 of 6.30 to 7.00.
`O=C(C#Cc1ccc(Br)cc1)N1CCC2(CC1)CN(C(=O)c1ccc(Cl)cc1)C2` [Compound C70, 3-(4-bromophenyl)-1-{2-[(4-chlorophenyl)carbonyl]-2,7-diazaspiro[3.5]non-7-yl}prop-2-yn-1-one] was tested, and the pIC50 was 6.30 to 7.00.
`O=C(/C=C/c1ccc(Br)cc1)N1CCC2(CC1)CN(Cc1ccc(Cl)cc1)C2` [Compound C6, (2E)-3-(4-bromophenyl)-1-{2-[(4-chlorophenyl)methyl]-2,7-diazaspiro[3.5]non-7-yl}prop-2-en-1-one] was tested, and the pIC50 was > 7.00.
With `COc1cc(CN2CCC3(CC2)CN(C(=O)c2cc4cc(Br)ccc4[nH]2)C3)cc(OC)c1` [Compound C62, 7-[(3,5-dimethoxyphenyl)methyl]-2,7-diazaspiro[3.5]non-2-yl 5-bromoindol-2-yl ketone] the pIC50 was 6.30 to 7.00.
Work on `O=C(C#Cc1ccc(F)cc1)N1CC2(CCN(C(=O)c3ccc(F)cc3)CC2)C1` [Compound C93, 3-(4-fluorophenyl)-1-{7-[(4-fluorophenyl)carbonyl]-2,7-diazaspiro[3.5]non-2-yl}prop-2-yn-1-one] yielded a pIC50 of 5.30 to 6.30.
For `O=C(/C=C/c1ccc(Cl)c(Cl)c1)N1CC2(CCN(Cc3ccc(Cl)cc3)CC2)C1` [Compound C33, (2E)-3-(3,4-dichlorophenyl)-1-{7-[(4-chlorophenyl)methyl]-2,7-diazaspiro[3.5]non-2-yl}prop-2-en-1-one], the pIC50 was 6.30 to 7.00.
Work on `O=C(C#Cc1ccc(Cl)cc1)N1CC2(CCN(Cc3ccc(C(F)(F)F)cc3)CC2)C1` [Compound C83, 3-(4-chlorophenyl)-1-(7-{[4-(trifluoromethyl)phenyl]methyl}-2,7-diazaspiro[3.5]non-2-yl)prop-2-yn-1-one] yielded a pIC50 of 5.30 to 6.30.
For `O=C(c1cc2cc(Br)ccc2[nH]1)N1CC2(CCN(Cc3ccc(F)cc3C(F)(F)F)CC2)C1` [Compound C60, 5-bromoindol-2-yl 7-{[4-fluoro-2-(trifluoromethyl)phenyl]methyl}-2,7-diazaspiro[3.5]non-2-yl ketone], the pIC50 was 5.30 to 6.30.
With `COc1ccc(C(=O)N2CCC3(CC2)CN(C(=O)C#Cc2ccc(F)cc2)C3)cc1` [Compound C92, 3-(4-fluorophenyl)-1-{7-[(4-methoxyphenyl)carbonyl]-2,7-diazaspiro[3.5]non-2-yl}prop-2-yn-1-one] the pIC50 was 6.30 to 7.00.
With `O=C(/C=C/c1ccc(Br)cc1)N1CCC2(CC1)CN(C(=O)c1ccccc1)C2` [Compound C7, (2E)-3-(4-bromophenyl)-1-[2-(phenylcarbonyl)-2,7-diazaspiro[3.5]non-7-yl]prop-2-en-1-one] the pIC50 was > 7.00.
`O=C(/C=C/c1ccc(Cl)c(Cl)c1)N1CC2(CCN(C(=O)c3ccc(-c4nnn[nH]4)cc3)CC2)C1` [Compound C31, (2E)-3-(3,4-dichlorophenyl)-1-{7-[(4-(1H-1,2,3,4-tetraazol-5-yl)phenyl)carbonyl]-2,7-diazaspiro[3.5]non-2-yl}prop-2-en-1-one] showed a pIC50 of 5.30 to 6.30.
With `O=C(/C=C/c1ccc(Br)cc1)N1CC2(CCN(C(=O)c3ccc(F)c(C(F)(F)F)c3)CC2)C1` [Compound C22, (2E)-3-(4-bromophenyl)-1-(7-{[4-fluoro-3-(trifluoromethyl)phenyl]carbonyl}-2,7-diazaspiro[3.5]non-2-yl)prop-2-en-1-one] the pIC50 was > 7.00.
For `O=C(c1cc2cc(Cl)ccc2[nH]1)N1CCC2(CC1)CN(Cc1cccc(F)c1)C2` [Compound C4, 5-chloroindol-2-yl 2-[(3-fluorophenyl)methyl]-2,7-diazaspiro[3.5]non-7-yl ketone], the pIC50 was > 7.00.
`O=C(C#Cc1ccc(F)cc1)N1CC2(CCN(C(=O)c3ccc(Cl)cc3)CC2)C1` [Compound C94, 1-{7-[(4-chlorophenyl)carbonyl]-2,7-diazaspiro[3.5]non-2-yl}-3-(4-fluorophenyl)prop-2-yn-1-one] showed a pIC50 of 6.30 to 7.00.
In the case of `O=C(C#Cc1ccc(Cl)cc1)N1CCC2(CC1)CN(C(=O)c1ccc(F)cc1)C2` [Compound C77, 3-(4-chlorophenyl)-1-{2-[(4-fluorophenyl)carbonyl]-2,7-diazaspiro[3.5]non-7-yl}prop-2-yn-1-one], the pIC50 was > 7.00.

Reference: patent publication US10196369B2, “Spirocyclic EBI2 modulators” (Sanford Burnham Prebys Medical Discovery Institute, priority 2013, dated 2019)
